Read-outs that look alike come from different tables or passages of the source.
What was measured:
[1] = octanol-water; cited from earlier work
[2] = test system: P. putida PhoA5; type: cell-based, Pseudomonas putida; details: for tolerance to paraben: same gradients; for tolerance to amino acid: gradient 0 to 50 g/L; for concentration that the strain tolerated: aromatic carboxylic acid gradient, 20 h at 30° C.
[3] = test system: Pseudomonas putida DOT-T1E (wild-type); type: cell-based; details: for tolerance to paraben / tolerance to amino acid: T1E; for tolerance to paraben: gradient up to 2, 1.54, 0.8, 0.3 g/L for methyl-, ethyl-, propyl-, butylparaben; for tolerance to amino acid: gradient 0 to 50 g/L; for concentration that the strain tolerated: Wild-type, aromatic carboxylic acid gradient, 20 h at 30° C.
[4] = test system: PhoA5 pPAT7; type: cell-based, Pseudomonas putida; details: for tolerance to paraben / tolerance to amino acid: PhoA5 pPAT7; for tolerance to paraben: same gradients; for tolerance to amino acid: gradient 0 to 50 g/L; for tolerance to aromatic carboxylic acids: PhoA5(pPAT7), double diffusion plates
[5] = test system: T1E pPAT7; type: cell-based, Pseudomonas putida; details: for tolerance to paraben: same gradients; for tolerance to amino acid: gradient 0 to 50 g/L
[6] = test system: Pseudomonas putida DOT-T1E; assay: Halo-inhibition test with antibiotic disks on minimal medium; type: cell-based; details: for size of the inhibition halo: strain T1E, 6-mm disks, µg per disk as, minimal medium; for tolerance/sensitivity to antibiotic: wild-type, Halo-inhibition test
[7] = test system: wild-type strain (DOT-T1E); details: 3 μg/mL EDDHA, M9 with glucose
[8] = test system: PhoA5 mutant; details: 3 μg/mL EDDHA, M9 with glucose; overcome by adding Fe-citrate
[9] = test system: adapted strain; details: after 11 transfers; slow rate

## CCCCCCCCO [1-octanol]
[1]
  log Pow: 2.8

## CCCCOC(=O)c1ccc(O)cc1 [BP, butylparabene]
[2]
  tolerance to paraben: >0.3 g/L
[2]; listed as butylparaben
  tolerance to paraben: ≥ 0.3 g/L
[3]
  tolerance to paraben: >0.3 g/L
[4]
  tolerance to paraben: >0.3 g/L
[5]
  tolerance to paraben: >0.3 g/L

## O=C(O)c1cn(C2CC2)c2cc(N3CCNCC3)c(F)cc2c1=O [CIP, ciprofloxacine]
[6]
  size of the inhibition halo: 21 mm
  tolerance/sensitivity to antibiotic: sensitive

## CO/N=C(\C(=O)N[C@@H]1C(=O)N2C(C(=O)O)=C(COC(C)=O)CS[C@H]12)c1csc(N)n1 [CTX, cefotaxime]
[6]
  size of the inhibition halo: 14 mm
  tolerance/sensitivity to antibiotic: sensitive

## CCOC(=O)c1ccc(O)cc1 [EB, ethylparabene]
[2]
  tolerance to paraben: ~1.4 g/L
[3]
  tolerance to paraben: >1.54 g/L
[4]
  tolerance to paraben: 1.54 g/L
[4]; listed as ethylparaben
  tolerance to paraben: as tolerant as the wild-type strain

## O=C(O)C(NCCNC(C(=O)O)c1ccccc1O)c1ccccc1O (centres unmarked) [EDDHA, ethylenediamine-di (o-hydroxyphenylacetic acid)]
[7]
  growth in the presence of iron chelator: grew under all culture conditions
[8]
  growth in the presence of iron chelator: severely inhibited

## N[C@@H](Cc1c[nH]cn1)C(=O)O [Histidine, L-histidine]
[2]
  tolerance to amino acid: 22.3 g/L
[2]; listed as histidine
  tolerance to amino acid: about 23 g/L
[3]
  tolerance to amino acid: 31.2 g/L
[3]; listed as histidine
  tolerance to amino acid: ~31 g/L
[4]
  tolerance to amino acid: 29.4 g/L
[5]
  tolerance to amino acid: 30.6 g/L

## C[C@@H](O)[C@H]1C(=O)N2C(C(=O)O)=C(SCCN=CN)C[C@H]12 [IPM, imipenen]
[6]
  size of the inhibition halo: 26 mm
  tolerance/sensitivity to antibiotic: sensitive

## COC(=O)c1ccc(O)cc1 [MB, methylparabene]
[2]
  tolerance to paraben: 1.0 g/L
[2]; listed as methylparaben
  tolerance to paraben: about 1 g/L
[3]
  tolerance to paraben: >2 g/L
[4]
  tolerance to paraben: >2.0 g/L
[4]; listed as methylparaben
  tolerance to paraben: as tolerant as the wild-type strain
[5]
  tolerance to paraben: >2 g/L

## CCn1cc(C(=O)O)c(=O)c2ccc(C)nc21 [NA, nalidixic acid]
[6]
  size of the inhibition halo: 15 mm
  tolerance/sensitivity to antibiotic: equally sensitive

## CCn1cc(C(=O)O)c(=O)c2cc(F)c(N3CCNCC3)cc21 [NOR, norfloxacine]
[6]
  size of the inhibition halo: 20 mm
  tolerance/sensitivity to antibiotic: sensitive

## CCCOC(=O)c1ccc(O)cc1 [PB, propylparabene]
[2]
  tolerance to paraben: >0.8 g/L
[2]; listed as propylparaben
  tolerance to paraben: at least 0.8 g/L
[3]
  tolerance to paraben: >0.8 g/L
[4]
  tolerance to paraben: >0.8 g/L
[5]
  tolerance to paraben: >0.8 g/L

## CCN1CCN(C(=O)N[C@@H](C(=O)N[C@@H]2C(=O)N3[C@@H]2SC(C)(C)[C@@H]3C(=O)O)c2ccccc2)C(=O)C1=O [PIP, piperacillin]
[6]
  size of the inhibition halo: 18 mm
  tolerance/sensitivity to antibiotic: equally sensitive

## [H]/N=C(/N)N[C@H]1[C@H](O)[C@@H](O)[C@H](O[C@@H]2O[C@@H](C)[C@](O)(C=O)[C@H]2O[C@@H]2O[C@@H](CO)[C@H](O)[C@@H](O)[C@@H]2NC)[C@@H](N/C(N)=N\[H])[C@@H]1O [SM, streptomycin]
[6]
  size of the inhibition halo: 16 mm
  tolerance/sensitivity to antibiotic: equally sensitive

## CN(C)[C@@H]1C(O)=C(C(N)=O)C(=O)[C@@]2(O)C(O)=C3C(=O)c4c(O)cccc4[C@@](C)(O)[C@H]3C[C@@H]12 [TE, tetracycline]
[6]
  size of the inhibition halo: 21 mm

## N[C@@H](Cc1c[nH]c2ccccc12)C(=O)O [Tryptophan, L-tryptophan]
[2]
  tolerance to amino acid: 23.5 g/L
[2]; listed as tryptophan
  tolerance to amino acid: about 23 g/L
[3]
  tolerance to amino acid: 35.3 g/L
[3]; listed as tryptophan
  tolerance to amino acid: ~35 g/L
[4]
  tolerance to amino acid: 22.9 g/L
[4]; listed as tryptophan
  tolerance to amino acid: more sensitive than the wild-type
[5]
  tolerance to amino acid: 38.8 g/L

## N[C@@H](Cc1ccc(O)cc1)C(=O)O [Tyrosine, L-tyrosine]
[2]
  tolerance to amino acid: 25.3 g/L
[2]; listed as tyrosine
  tolerance to amino acid: about 23 g/L
[3]
  tolerance to amino acid: about 40 g/L

## CC(=O)O [acetate]
[9]
  acetate concentration at which the adapted strain was able to grow: 200 mM

## CC1(C)S[C@@H]2[C@H](NC(=O)[C@H](N)c3ccccc3)C(=O)N2[C@H]1C(=O)O [ampicillin]
[6]
  tolerance/sensitivity to antibiotic: tolerant

## C1CCCCC1 [cyclohexane]
[1]
  log Pow: 3.2

## CC[C@H]1OC(=O)[C@H](C)[C@@H](O[C@H]2C[C@@](C)(OC)[C@@H](O)[C@H](C)O2)[C@H](C)[C@@H](O[C@@H]2O[C@H](C)C[C@H](N(C)C)[C@H]2O)[C@](C)(O)C[C@@H](C)C(=O)[C@H](C)[C@@H](O)[C@]1(C)O [erythromycin]
[6]
  tolerance/sensitivity to antibiotic: tolerant

## CCc1ccccc1 [ethylbenzene]
[1]
  log Pow: 3.1

## CCCCCCC [heptane]
[1]
  log Pow: 4.5

## Nc1cccc(C(=O)O)c1 [m-aminobenzoate]
[2]
  concentration that the strain tolerated: 7.5 g/L
[3]
  concentration that the strain tolerated: 14.8 g/L
[4]
  tolerance to aromatic carboxylic acids: as tolerant as the wild-type

## O=C(O)c1cccc(Cl)c1 [m-chlorobenzoate]
[2]
  concentration that the strain tolerated: 3.0 g/L
[3]
  concentration that the strain tolerated: 4.5 g/L
[4]
  tolerance to aromatic carboxylic acids: as tolerant as the wild-type

## COc1cccc(C(=O)O)c1 [m-methoxybenzoate]
[2]
  concentration that the strain tolerated: 7.2 g/L
[3]
  concentration that the strain tolerated: 12 g/L
[4]
  tolerance to aromatic carboxylic acids: as tolerant as the wild-type

## Nc1ccccc1C(=O)O [o-aminobenzoate]
[2]
  concentration that the strain tolerated: 5.0 g/L
[3]
  concentration that the strain tolerated: 8.7 g/L
[4]
  tolerance to aromatic carboxylic acids: as tolerant as the wild-type

## O=C(O)c1ccccc1Cl [o-chlorobenzoate]
[2]
  concentration that the strain tolerated: 6.0 g/L
[3]
  concentration that the strain tolerated: 14.5 g/L
[4]
  tolerance to aromatic carboxylic acids: as tolerant as the wild-type

## COc1ccccc1C(=O)O [o-methoxybenzoate]
[2]
  concentration that the strain tolerated: 8.5 g/L
[3]
  concentration that the strain tolerated: 17 g/L
[4]
  tolerance to aromatic carboxylic acids: as tolerant as the wild-type

## Nc1ccc(C(=O)O)cc1 [p-aminobenzoate]
[2]
  concentration that the strain tolerated: 7.8 g/L
[3]
  concentration that the strain tolerated: 13.0 g/L
[4]
  tolerance to aromatic carboxylic acids: as tolerant as the wild-type

## Cc1ccc(C(=O)O)cc1 [p-methylbenzoate]
[2]
  concentration that the strain tolerated: 7.4 g/L
[3]
  concentration that the strain tolerated: 14.5 g/L
[4]
  tolerance to aromatic carboxylic acids: as tolerant as the wild-type

## Cc1ccc(C)cc1 [p-xylene]
[1]
  log Pow: 3.0

## CCCc1ccccc1 [propylbenzene]
[1]
  log Pow: 3.6

## CN[C@H](CC(C)C)C(=O)N[C@H]1C(=O)N[C@@H](CC(N)=O)C(=O)N[C@H]2C(=O)N[C@H]3C(=O)N[C@H](C(=O)N[C@H](C(=O)O)c4cc(O)cc(O)c4-c4cc3ccc4O)[C@H](O)c3ccc(c(Cl)c3)Oc3cc2cc(c3O[C@@H]2O[C@H](CO)[C@@H](O)[C@H](O)[C@H]2O[C@H]2C[C@](C)(N)[C@H](O)[C@H](C)O2)Oc2ccc(cc2Cl)[C@H]1O [vancomycin]
[6]
  tolerance/sensitivity to antibiotic: tolerant

## gentamycin [GM]
[6]
  size of the inhibition halo: 17 mm
  tolerance/sensitivity to antibiotic: equally sensitive

## p-methoxybenzoate
[2]
  concentration that the strain tolerated: 9.1 g/L
[3]
  concentration that the strain tolerated: 19 g/L
[4]
  tolerance to aromatic carboxylic acids: as tolerant as the wild-type
